# Measured values reported in US20130210846A1, “USE OF NOVEL PAN-CDK INHIBITORS FOR TREATING TUMORS” (BAYER INTELLECTUAL PROPERTY GMBH, priority 2010, published 2013).
# Tests used:
# [1] = test system: OVCAR-8; test: Proliferation assay OVCAR-8; assay type: cell-based; settings: Homo sapiens, 96 h; OVCAR-8, ovarial carcinoma; 4 days, crystal violet
# Description: (§1) Cultivated human tumor cells (originally obtained from ATCC, HeLa-MaTu and HeLa-MaTu-ADR, originally obtained from Epo GmbH, Berlin, Germany) were plated at a density of 1000 to 5000 cells/measuring point, depending on the growth rate of the cell line, in a 96-well multititer plate in 200 μl of growth medium (DMEM/HAMS F12, 2 mM L-glutamine, 10% fetal calf serum). After 24 hours the cells of one plate (zero-point plate) were stained with crystal violet (see below), whereas the medium of the other plates was replaced with fresh culture medium (200 μl), to which the test substances had been added at various concentrations (0 μM, and in the range 0.01-30 μM; the final concentration of the solvent dimethyl sulfoxide was 0.5%). The cells were incubated for 4 days in the presence of the test substances. Cellular proliferation was determined by staining the cells with crystal violet: the cells were fixed by adding 20 μl/measuring point of an 11% glutaraldehyde solution for 15 min at room temperature. […] The extinction was determined photometrically at a wavelength of 595 nm. The percentage change in cell growth was calculated by standardization of the measured values to the extinction values of the zero-point plate (=0%) and the extinction of the untreated (0 μM) cells (=100%). […] The IC50 values were determined by means of a 4-parameter fit using the company's own software. […]
# [2] = test system: NCI-H69; test: Proliferation assay NCI-H69; assay type: cell-based; settings: Homo sapiens, 96 h; NCI-H69, small-cell bronchial carcinoma; 4 days, crystal violet
# Description: as §1
# [3] = test system: HeLa-MaTu; test: Proliferation assay HeLa-MaTu; assay type: cell-based, human; settings: Homo sapiens, 96 h, cervix carcinoma, 4 days, crystal violet
# In short: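 Growth inhibition was determined from crystal violet extinction at 595 nm after cells had been treated for 4 days with test substance (0.01–30 μM, final DMSO 0.5%). Values were referenced to a plate fixed at the time of dosing and to untreated cells, with IC50 from a 4-parameter fit.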
# [4] = test system: HeLa-MaTu-ADR multidrug-resistant human cervix carcinoma cells; test: HeLa-MaTu-ADR Res. xenograft model; assay type: in vivo, female NMRI nude mice
# Excerpt: (§2) Tumor cells grown in cell culture were implanted subcutaneously in the flank of female or male NMRI nude mice. The treatment was started as soon as the tumors had grown to a size of approx. 20 mm^2 The study was ended as soon as the tumors in one of the groups reached a size of approx. 150 mm^2.
# (§3) Vehicle group: treatment with solubilizer (40% PEG400/60% water)
# (§4) The studies were designed for determining the initial response of the human tumor model to the treatment with the Exemplary compound 2-SI-2. Tumor growth inhibition in percent (TGI) was either calculated at the end of the studies from the tumor weights (TGITW) using the formula 100×[1−(tumor weight of the treatment group/tumor weight of the vehicle group)], or on the day the vehicle group had to be ended from the tumor areas (TGITA) using the formula 100×[1−(tumor area of the treatment group on the day of the measurement−tumor area of the treatment group prior to treatment)/(tumor area of the vehicle group on the day of the measurement−tumor area of the vehicle group prior to treatment)]. In the case of a tumor growth inhibition of more than 50%, the treatment was considered to have been effective.
# Efficacy in the HeLa-MaTu-ADR Res. xenograft model
# HeLa-MaTu-ADR multidrug-resistant human cervix carcinoma cells implanted into female NMRI nude mice.
# Formulation • a) 0.15 mg/ml, 0.20 mg/ml of Example 2-SI-2 in 40% (v/v) PEG 400 in water • b) 0.20 mg/ml, 0.25 mg/ml of Example 2-SI-2 in 40% (v/v) PEG 400 in water
# • a) 1.5 and 2.0 mg/kg (4.5 and 6.0 mg/m^2), 1× per day • b) 2.0 and 2.5 mg/kg (6.0 and 7.5 mg/m^2), 2× per day on 2 successive days, followed by 5 treatment-free days
# [5] = test system: NCI-H82 human small-cell lung tumor cells; test: NCI-H82 human small-cell lung tumor model; assay type: in vivo, female NMRI nude mice; settings: NCI-H82; a) 1.7 mg/kg oral 2× per day on 3 successive days, followed by 4 treatment-free days
# Excerpt: as §2, §3, §4
# Efficacy in the NCI-H82 human small-cell lung tumor model.
# NCI-H82 human small-cell lung tumor cells implanted into female NMRI nude mice.
# • a) 0.17 mg/ml of Example 2-SI-2 in 40% (v/v) PEG 400 in water […]
# [6] = test system: MDA-MB231 human breast tumor cells; test: MDA-MB231 human breast tumor model; assay type: in vivo, female NMRI nude mice
# Excerpt: as §2, §3, §4
# Efficacy in the MDA-MB231 human breast tumor model MDA-MB231.
# MDA-MB231 human breast tumor cells implanted into female NMRI nude mice.
# • a) 0.20 mg/ml of Example 2-SI-2 in 40% (v/v) PEG 400 in water • b) 0.25 mg/ml of Example 2-SI-2 in 40% (v/v) PEG 400 in water • c) 0.15 mg/ml of Example 2-SI-2 in 40% (v/v) PEG 400 in water • d) 0.17 mg/ml of Example 2-SI-2 in 40% (v/v) PEG 400 in water
# • a) 2.0 mg/kg (6.0 mg/m^2), 1× per day. • b) 2.5 mg/kg (7.5 mg/m^2), 2× per day on 2 successive days, followed by 5 treatment-free days. • c) 1.5 mg/kg (4.5 mg/m^2), 2× per day on 3 successive days, followed by 4 treatment-free days. • d) 1.7 mg/kg (5.1 mg/m^2), 2× per day on 3 successive days, followed by 4 treatment-free days.
# [7] = HeLa-MaTu-ADR; b) 2.5 mg/kg oral 2× per day on 2 successive days, followed by 5 treatment-free days
compound,measurement,setting,value
"C[C@@H](O)[C@@H](C)Oc1nc(Nc2ccc(S(C)(=N)=O)cc2)ncc1C(F)(F)F (single isomer, unassigned) [Example 2-SI-2]",IC50,[1],14 nM
same,IC50,[2],37 nM
"C[C@@H](O)[C@@H](C)Nc1nc(Nc2ccc(S(=N)(=O)C3CC3)cc2)ncc1C(F)(F)F (mixture of isomers) [Example 4-SI-1, (RS)—S-Cyclopropyl-S-(4-{[4-{[(1R,2R)-2-hydroxy-1-methylpropyl]amino}-5-(trifluoromethyl)-pyrimidin-2-yl]amino}phenyl)sulfoximide]",IC50,[3],10 nM
"C[C@@H](O)[C@@H](C)Oc1nc(Nc2ccc(S(C)(=N)=O)cc2)ncc1C(F)(F)F (mixture of isomers) [Example 2-SI-2, (RS)—S-(4-{[4-{[(1R,2R)-2-Hydroxy-1-methylpropyl]oxy}-5-(trifluoromethyl)pyrimidin-2-yl]-amino}phenyl)-S-methylsulfoximide]",TGITW (tumor growth inhibition from tumor weights),[4]; HeLa-MaTu-ADR; a) 2.0 mg/kg oral 1× per day,97%
same,TGITW (tumor growth inhibition from tumor weights),[4]; [7],90%
same,tumor regression observation,[4]; [7],signs of tumor regression
same,TGITW (tumor growth inhibition from tumor weights),[5],86%
same,"TGITA (tumor growth inhibition from tumor areas, measured on the day the vehicle group was ended)",[6]; MDA-MB231; a) 2.0 mg/kg oral 1× per day,92%
same,TGITA (tumor growth inhibition from tumor areas),"[6]; MDA-MB231; b) 2.5 mg/kg oral 2× per day on 2 successive days, followed by 5 treatment-free days",76%
same,TGITA (tumor growth inhibition from tumor areas),"[6]; MDA-MB231; c) 1.5 mg/kg oral 2× per day on 3 successive days, followed by 4 treatment-free days",70%
same,TGITA (tumor growth inhibition from tumor areas),"[6]; MDA-MB231; d) 1.7 mg/kg oral 2× per day on 3 successive days, followed by 4 treatment-free days",70%
